Laboratory results: ChEMBL document CHEMBL1146173, “New pyrimido[5,4-b]indoles and [1]benzothieno[3,2-d]pyrimidines: high affinity ligands for the alpha(1)-adrenoceptor subtypes” (Bioorg Med Chem Lett, 2006)

Key:
[1] = molecular target: T1, Alpha-1B adrenergic receptor (Homo sapiens, UniProt P35368); experiment: Displacement of [125I]BE2254 from human cloned adrenergic alpha 1B receptor expressed in HEK293 cells; format: cell-based
T1 sequence (P35368 whole entry): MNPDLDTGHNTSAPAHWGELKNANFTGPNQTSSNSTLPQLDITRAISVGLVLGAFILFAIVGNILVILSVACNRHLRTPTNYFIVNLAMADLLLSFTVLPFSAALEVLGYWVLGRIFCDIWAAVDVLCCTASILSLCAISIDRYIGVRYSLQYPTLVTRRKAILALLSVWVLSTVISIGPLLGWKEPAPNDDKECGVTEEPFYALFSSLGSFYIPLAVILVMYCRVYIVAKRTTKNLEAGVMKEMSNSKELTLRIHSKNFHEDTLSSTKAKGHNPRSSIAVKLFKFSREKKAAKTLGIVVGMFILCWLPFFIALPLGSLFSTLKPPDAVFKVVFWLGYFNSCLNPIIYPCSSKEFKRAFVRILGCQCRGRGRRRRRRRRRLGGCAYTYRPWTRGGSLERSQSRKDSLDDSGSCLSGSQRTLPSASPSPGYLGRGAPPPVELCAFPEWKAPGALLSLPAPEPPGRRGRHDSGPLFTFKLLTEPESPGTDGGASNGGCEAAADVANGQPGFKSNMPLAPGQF

[2] = molecular target: T2, Alpha-1A adrenergic receptor (Homo sapiens, UniProt P35348); experiment: Displacement of [125I]BE2254 from human cloned adrenergic alpha 1A receptor expressed in HEK293 cells; format: cell-based
T2 sequence (P35348 whole entry): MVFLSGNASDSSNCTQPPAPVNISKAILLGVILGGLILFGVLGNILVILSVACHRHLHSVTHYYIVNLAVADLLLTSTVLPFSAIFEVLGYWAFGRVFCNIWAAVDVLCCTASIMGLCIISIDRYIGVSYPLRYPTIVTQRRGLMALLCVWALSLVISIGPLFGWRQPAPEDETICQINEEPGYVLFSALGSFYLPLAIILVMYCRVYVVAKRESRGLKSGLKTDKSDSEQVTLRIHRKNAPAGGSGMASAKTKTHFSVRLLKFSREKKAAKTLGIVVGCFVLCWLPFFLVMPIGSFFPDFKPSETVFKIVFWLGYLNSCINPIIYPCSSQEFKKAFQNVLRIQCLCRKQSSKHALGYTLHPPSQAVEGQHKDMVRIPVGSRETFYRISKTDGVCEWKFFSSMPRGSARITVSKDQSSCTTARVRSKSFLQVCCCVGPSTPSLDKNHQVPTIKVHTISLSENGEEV

[3] = molecular target: T3, Alpha-1D adrenergic receptor (Homo sapiens, UniProt P25100); experiment: Displacement of [125I]BE2254 from human cloned adrenergic alpha 1D receptor expressed in HEK293 cells; format: cell-based; settings: for Log Ki: hek293
T3 sequence (P25100 whole entry): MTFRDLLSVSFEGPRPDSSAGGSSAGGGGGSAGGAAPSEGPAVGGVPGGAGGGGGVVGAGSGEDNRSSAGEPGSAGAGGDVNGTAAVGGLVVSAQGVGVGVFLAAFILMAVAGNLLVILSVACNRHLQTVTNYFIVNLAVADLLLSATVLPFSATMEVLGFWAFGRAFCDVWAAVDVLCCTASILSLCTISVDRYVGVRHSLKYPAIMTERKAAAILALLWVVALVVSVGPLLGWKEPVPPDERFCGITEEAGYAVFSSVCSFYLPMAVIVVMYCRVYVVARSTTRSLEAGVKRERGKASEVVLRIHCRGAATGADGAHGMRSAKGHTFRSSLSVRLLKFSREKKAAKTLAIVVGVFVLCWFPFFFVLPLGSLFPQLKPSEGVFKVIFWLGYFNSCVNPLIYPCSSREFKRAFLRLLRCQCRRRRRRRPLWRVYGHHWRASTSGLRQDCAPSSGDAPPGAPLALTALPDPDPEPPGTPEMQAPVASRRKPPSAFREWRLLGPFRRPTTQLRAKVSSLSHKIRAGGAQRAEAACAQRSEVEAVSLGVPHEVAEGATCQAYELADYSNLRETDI

[4] = molecular target: T4, Alpha-1A adrenergic receptor (Rattus norvegicus) (UniProt P43140); experiment: Antagonist activity at adrenergic alpha 1A receptor in rat prostatic vas deferens; format: functional, tissue-based
T4 sequence (whole entry): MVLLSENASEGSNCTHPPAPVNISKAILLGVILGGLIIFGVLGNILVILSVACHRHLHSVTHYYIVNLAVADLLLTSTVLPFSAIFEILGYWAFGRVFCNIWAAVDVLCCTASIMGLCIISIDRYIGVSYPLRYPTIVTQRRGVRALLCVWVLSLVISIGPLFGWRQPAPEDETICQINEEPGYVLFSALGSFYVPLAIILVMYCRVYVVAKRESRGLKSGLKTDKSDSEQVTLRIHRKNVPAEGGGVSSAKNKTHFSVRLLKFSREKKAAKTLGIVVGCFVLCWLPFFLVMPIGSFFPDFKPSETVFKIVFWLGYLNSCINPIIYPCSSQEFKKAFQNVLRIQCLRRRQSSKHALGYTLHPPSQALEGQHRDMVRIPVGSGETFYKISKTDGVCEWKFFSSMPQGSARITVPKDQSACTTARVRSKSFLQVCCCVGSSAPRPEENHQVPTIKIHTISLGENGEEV

[5] = molecular target: T5, Alpha-1B adrenergic receptor (Rattus norvegicus) (UniProt P15823); experiment: Antagonist activity at adrenergic alpha 1B receptor in rat spleen; format: functional, tissue-based
T5 sequence (whole entry): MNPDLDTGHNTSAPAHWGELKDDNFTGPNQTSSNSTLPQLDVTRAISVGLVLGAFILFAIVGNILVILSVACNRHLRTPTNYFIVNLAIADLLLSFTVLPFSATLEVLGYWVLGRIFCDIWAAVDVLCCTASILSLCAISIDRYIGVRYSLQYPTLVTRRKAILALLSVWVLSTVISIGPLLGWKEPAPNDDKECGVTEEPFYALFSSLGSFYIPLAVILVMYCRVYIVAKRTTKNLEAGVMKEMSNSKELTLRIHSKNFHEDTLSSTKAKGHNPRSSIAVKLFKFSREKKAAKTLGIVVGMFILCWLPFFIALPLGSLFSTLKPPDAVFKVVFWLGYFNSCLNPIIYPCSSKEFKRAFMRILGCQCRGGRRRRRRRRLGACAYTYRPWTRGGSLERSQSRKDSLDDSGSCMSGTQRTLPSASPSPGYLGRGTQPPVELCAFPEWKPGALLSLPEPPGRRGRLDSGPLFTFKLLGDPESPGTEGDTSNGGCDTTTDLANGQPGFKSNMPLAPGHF

[6] = molecular target: T6, Alpha-1D adrenergic receptor (Rattus norvegicus) (UniProt P23944); experiment: Antagonist activity at adrenergic alpha 1D receptor in rat thoracic aorta; format: functional, tissue-based
T6 sequence (whole entry): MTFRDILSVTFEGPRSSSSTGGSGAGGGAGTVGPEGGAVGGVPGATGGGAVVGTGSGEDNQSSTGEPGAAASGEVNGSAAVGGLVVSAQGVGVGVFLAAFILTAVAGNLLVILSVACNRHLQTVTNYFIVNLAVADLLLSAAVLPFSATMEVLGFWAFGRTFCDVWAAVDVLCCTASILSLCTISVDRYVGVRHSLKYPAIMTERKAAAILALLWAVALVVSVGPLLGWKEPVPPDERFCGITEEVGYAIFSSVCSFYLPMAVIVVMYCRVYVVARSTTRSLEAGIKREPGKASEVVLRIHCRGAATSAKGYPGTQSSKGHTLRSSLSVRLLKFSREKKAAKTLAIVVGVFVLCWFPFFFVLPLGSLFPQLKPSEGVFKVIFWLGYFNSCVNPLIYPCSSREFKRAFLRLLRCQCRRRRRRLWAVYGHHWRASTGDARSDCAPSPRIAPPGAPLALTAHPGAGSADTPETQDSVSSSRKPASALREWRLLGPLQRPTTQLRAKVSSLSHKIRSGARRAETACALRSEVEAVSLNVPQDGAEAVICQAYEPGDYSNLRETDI

SMILES	Ki [1]	Ki [2]	Ki [3]	pKb [4]	pKb [5]	pKb [6]	Log Ki ([2]; hek293)	Log Ki [3]
COc1ccc(Cl)cc1N1CCN(CCn2c(C)nc3c([nH]c4ccccc43)c2=O)CC1	4.47 nM	1.32 nM	0.166 nM	7.6	8.68	8.39		
COc1ccc(Cl)cc1N1CCN(CCn2c(=O)[nH]c3c([nH]c4ccccc43)c2=O)CC1	10.7 nM	8.32 nM	1.55 nM					
COc1ccccc1N1CCN(CCn2c(C)nc3c(sc4ccccc43)c2=O)CC1	17.4 nM	1.48 nM	0.398 nM	8.65	7.63	8.98		
COc1ccccc1N1CCN(CCn2c(C)nc3c4ccccc4nc-3c2O)CC1				8.53	9.73	9.24	-8.52	-9.39
COc1ccccc1N1CCN(CCn2c(=O)[nH]c3c([nH]c4ccccc43)c2=O)CC1		0.288 nM		8.46	8.67	8.71		-9.44

Continued, values first:

Ki [1]	Ki [2]	Ki [3]	pKb [4]	pKb [5]	pKb [6]	Log Ki ([2]; hek293)	Log Ki [3]	SMILES
91.2 nM	53.7 nM	13.5 nM						COc1ccc(Cl)cc1N1CCN(CCn2c(=O)[nH]c3c(sc4ccccc43)c2=O)CC1
17.4 nM	3.47 nM	0.832 nM	7.52	8.91	7.57			COc1ccc(Cl)cc1N1CCN(CCn2c(C)nc3c(sc4ccccc43)c2=O)CC1
19100 nM	4270 nM	309 nM						O=c1[nH]c2c(sc3ccccc32)c(=O)n1CCN1CCN(c2ccc(Cl)c(Cl)c2)CC1
83.2 nM	30.2 nM	7.41 nM						Cc1nc2c([nH]c3ccccc32)c(=O)n1CCN1CCN(c2ccc(Cl)c(Cl)c2)CC1
8.91 nM	3.31 nM	1.26 nM	8.61	8.44	8.89			COc1ccccc1N1CCN(CCn2c(=O)[nH]c3c(sc4ccccc43)c2=O)CC1
603 nM	182 nM	437 nM						Cn1c(=O)n(CCN2CCN(c3ccc(Cl)c(Cl)c3)CC2)c(=O)c2c1c1ccccc1n2C
